From paper PMC12389534, “Unlocking Therapeutic Potential of Novel Thieno-Oxazepine Hybrids as Multi-Target Inhibitors of AChE/BChE and Evaluation Against Alzheimer’s Disease: In Vivo, In Vitro, Histopathological, and Docking Studies” (Pharmaceuticals, 2025)
“Also recorded” adds a separate entry of the source.

Key:
[1] = system: AlCl3-induced AD rat model; assay: Y-maze SAP test in AlCl3-induced AD rats; assay type: in vivo; settings: for SAP%: mean ± SE, n = 6
Procedure: All procedures were conducted conforming to the applicable National Institutes of Health standards and regulations for the Care and Use of Laboratory Animals. In this experiment, adult male Dawley rats in excellent condition weighing between 300 and 320 g were used. The animals were acquired from the Nile Company for Pharmaceuticals and Chemical Industries (Cairo, Egypt). They were placed in a controlled laboratory setting with unrestricted access to water, a temperature range of 24 to 26 °C, and 12 h a light–dark cycle. Three rats per cage were housed in polycarbonate cages that were individually packed with paper and encased with stainless steel wire.
One kind of short-term memory that SAP can represent is spatial working memory. Three arms, designated A, B, or C, were employed in a black hardwood Y-maze with a symmetrical triangular core space. Rats were briefly positioned at the edge of one arm and given 8 min to freely navigate around the maze. When the rat’s rear paws were fully inside the arm, the entries were counted. The following formula was used to determine SAP based on the total number of arm entries and alternations: SAP (%) = [number of alternations/(total arm entries − 2)] × 100 [94].

[2] = system: 5-HT; assay: Brain 5-HT level (fluorometric); assay type: in vivo, rat; settings: AlCl3-induced AD rats; for 5-HT (ng/g Tissue): brain tissue, mean ± SE, n = 6
Procedure: (§1) The brain tissues of the rats were removed and rigorously washed in isotonic saline 24 h after they were euthanized following the last behavioral test. For histological investigation, four brains per group were preserved for the whole night in 10% neutral buffered formalin. The remaining six brains were split into two sections each. In order to create a 10% homogenate (w/v), the first component was instantaneously homogenized using an ice-cold solution that included 300 mM sucrose and 50 mM Tris-HCl (pH 7.4). The homogenate was centrifuged at 1800× g for 10 min at 4 °C for biochemical tests, and the supernatant was thereafter kept at −20 °C. The second portion was set aside for use in RT-PCR analysis at −80 °C [94].
(§2) Brain monoamine levels were promptly assessed following the rats’ euthanasia to prevent changes in the substance’s concentration. Dopamine (DA), norepinephrine (NE), and serotonin (5-HT) fluorometric tests were conducted on brain tissue homogenate using the Ciarlone method. […] The concentrations were articulated as nanograms per gram of fresh tissue using the fluorescence of reference solutions [95].

[3] = target: T1, AChE (Homo sapiens, UniProt P22303); assay: biochemical; settings: colorimetric kit, 412 nm
T1 construct: purchased BioVision K197-100
Procedure: All newly created compounds were subjected to an AChE enzyme inhibitory screening. This was performed with the Colorimetric AChE Inhibitor Screening Kit (BioVision Catalog # K197-100). The 96-well assay kit provides a rapid, simple, and reliable way to screen for AChE inhibitors in large quantities. […] A completely transparent 96-well plate with a flat bottom was loaded with 10 µL of test inhibitors that were diluted (20×). […] A measure of 10 μL of diluted AChE was applied to each well that contained compounds, inhibitor control, and solvent control. […] Measures of 25 μL of AChE assay buffer, 5 μL of probe mix, and 10 μL of diluted AChE substrate were mixed to create the reaction mix. The reaction mix was mixed with the compound, enzyme control, and inhibitor control. […] The IC50 was calculated using nonlinear regression analysis using the response–concentration (log) curve.

[4] = system: brain tissue (CC, ST, FD, SN neurons); assay: Histopathological examination of brain tissue; assay type: in vivo, rat; settings: brain sections, AlCl3-induced AD rats; for histopathological finding in CC, ST, FD and SN (NP = nuclear pyknosis): H&E
Procedure: as §1
Brain tissue samples were stationed in 10% formalin for 24 h, washed with water, and then serially diluted with alcohol to induce dehydration. After being submerged in paraffin, the specimens were cut into segments that were 4 µm thick using a microtome.

[5] = system: TAC; assay: Brain TAC (colorimetric); assay type: in vivo, rat; settings: AlCl3-induced AD rats; for TAC (µmol/g Tissue): brain tissue, mean ± SE, n = 6
Procedure: as §1
The SOD enzyme activity was estimated using the Marklund et al. method, which is founded on the enzyme’s capacity to decrease the nitro blue tetrazolium dye at a wavelength of 540 nm. To evaluate the TAC, a colorimetric approach was employed to estimate the amount of hydrogen peroxide that remains after 3,5-dichloro-2-hydroxybenzene sulphonate is converted to a colored product at 660 nm.

[6] = system: MDA; assay: Brain MDA content (thiobarbituric acid method); assay type: in vivo, rat; set-up: reduction in MDA brain content: concentration or dose not given beside the values; settings: AlCl3-induced AD rats; for MDA (nmol/g Tissue): brain tissue, mean ± SE, n = 6
[7] = system: NFκβ; assay: NFκβ mRNA expression (RT-qPCR); assay type: in vivo, rat; set-up: reduction of NFκβ mRNA expression: concentration or dose not given beside the values; settings: AlCl3-induced AD rats; for NFκβ: mRNA expression level, mean ± SE, n = 6
Procedure: as §1
(§3) See Supplementary Information.

[8] = system: Nrf-2; assay: Nrf-2 mRNA expression (RT-qPCR); assay type: in vivo, rat; settings: AlCl3-induced AD rats; for Nrf-2: mRNA expression in brain tissue, mean ± SE, n = 6
Procedure: as §1, §3

[9] = target: T2, BChE (Homo sapiens, UniProt P06276); assay: biochemical; settings: for IC50: fluorescence kit, triplicate; for Selectivity Index BChE/AChE: ratio of IC50 BChE to IC50 AChE, <1 = preferential BChE inhibition
T2 construct: purchased Invitrogen EIABCHEF
Procedure: Using an Invitrogen BChE test kit (Catalog #EIABCHEF), the assay was performed in compliance with the supplier’s instructions. The study was conducted using black 96-well plates. […] Each well was then filled with 50 μL of the reaction mixture, which consisted of fluorescence detection reagent and butyrylthiocholine iodide in assay buffer. The plate was then left to incubate for 20 min at room temperature. Finally, excitation at 390 nm was used to observe emission at 510 nm using a microplate reader. Background fluorescence was further eliminated for each data point.

[10] = system: Caspase-1; assay: Caspase-1 gene expression (RT-qPCR); assay type: in vivo, rat; set-up: reduction of Caspase-1 levels: concentration or dose not given beside the values; settings: AlCl3-induced AD rats; for Caspase-1: gene expression, mean ± SE, n = 6
Procedure: as §1, §3

[11] = system: BDNF; assay: Brain BDNF level (ELISA); assay type: in vivo, rat; settings: AlCl3-induced AD rats; for BDNF (ng/mL): brain tissue, mean ± SE, n = 6
Procedure: as §1, §3

[12] = system: NE; assay: Brain NE level (fluorometric); assay type: in vivo, rat; settings: AlCl3-induced AD rats; for NE (nmol/g Tissue): brain tissue, mean ± SE, n = 6
Procedure: as §1, §2

[13] = system: BAX/Bcl-2; assay: BAX/Bcl-2 ratio of gene expression; assay type: in vivo, rat; settings: AlCl3-induced AD rats
Procedure: as §1, §3

T2 sequence (P06276 29-602): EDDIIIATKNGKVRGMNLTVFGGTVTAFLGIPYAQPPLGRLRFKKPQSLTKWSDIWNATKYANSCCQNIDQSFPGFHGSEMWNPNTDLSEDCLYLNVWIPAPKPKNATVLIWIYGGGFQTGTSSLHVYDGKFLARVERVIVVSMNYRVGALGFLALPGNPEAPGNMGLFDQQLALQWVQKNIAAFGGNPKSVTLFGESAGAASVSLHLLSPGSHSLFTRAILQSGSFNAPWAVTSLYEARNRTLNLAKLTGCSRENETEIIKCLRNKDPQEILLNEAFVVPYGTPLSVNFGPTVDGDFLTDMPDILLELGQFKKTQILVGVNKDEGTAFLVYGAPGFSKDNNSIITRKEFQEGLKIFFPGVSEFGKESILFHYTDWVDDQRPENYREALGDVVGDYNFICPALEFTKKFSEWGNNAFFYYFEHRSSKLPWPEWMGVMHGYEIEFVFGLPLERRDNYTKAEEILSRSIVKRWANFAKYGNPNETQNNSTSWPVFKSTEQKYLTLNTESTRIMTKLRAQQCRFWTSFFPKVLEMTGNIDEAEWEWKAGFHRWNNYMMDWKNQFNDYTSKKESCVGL
T1 sequence (P22303 32-614): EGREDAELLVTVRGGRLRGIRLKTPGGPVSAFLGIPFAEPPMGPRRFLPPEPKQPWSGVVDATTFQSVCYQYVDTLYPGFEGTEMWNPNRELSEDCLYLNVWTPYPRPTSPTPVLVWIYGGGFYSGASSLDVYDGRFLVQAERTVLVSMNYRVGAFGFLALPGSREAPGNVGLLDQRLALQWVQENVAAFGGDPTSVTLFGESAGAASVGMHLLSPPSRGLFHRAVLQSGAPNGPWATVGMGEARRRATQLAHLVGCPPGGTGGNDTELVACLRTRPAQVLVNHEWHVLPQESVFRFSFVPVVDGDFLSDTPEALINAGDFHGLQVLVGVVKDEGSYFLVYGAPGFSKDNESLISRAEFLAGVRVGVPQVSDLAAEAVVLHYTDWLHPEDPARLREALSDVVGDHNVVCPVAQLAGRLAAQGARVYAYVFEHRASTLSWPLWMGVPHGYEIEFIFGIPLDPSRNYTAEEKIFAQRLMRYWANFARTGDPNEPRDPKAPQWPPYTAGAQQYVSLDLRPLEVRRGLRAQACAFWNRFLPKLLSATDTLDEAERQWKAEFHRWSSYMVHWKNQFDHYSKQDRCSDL

## CCOc1ccc(N2CC(=O)Oc3sc4c(c3C2=O)CCCCC4)cc1 [Compound 14, 4-(4-Ethoxyphenyl)-3,4,7,8,9,10-hexahydro-6H-cyclohepta[4,5]thieno[3,2-f][1,4]oxazepine-2,5-dione]
[1]
  SAP%: 77.5 ± 2.11 ^abc %
[2]
  elevation of 5-HT levels: 4.5 fold
  5-HT (ng/g Tissue): 8.22 ± 0.19 ^abc ng/g Tissue
[3]
  IC50: 0.39 ± 0.01 µM
[4]
  histopathological finding in CC, ST, FD and SN (NP = nuclear pyknosis): moderate NP in CC, FD, and SN, normal histology of neurons in ST; also recorded: significant pyknosis
[5]
  improvement of TAC levels: 3.8 times
  TAC (µmol/g Tissue): 36.96 ± 0.51 ^abc µmol/g Tissue
[6]
  reduction in MDA brain content: 59%
  MDA (nmol/g Tissue): 47.6 ± 0.12 ^abc nmol/g Tissue
[7]
  reduction of NFκβ mRNA expression: 56%
  NFκβ: 3.73 ± 0.04 ^abc
[8]
  elevation of Nrf-2 mRNA expression: 3.1 fold
  Nrf-2: 0.50 ± 0.020 ^abc
[9]
  IC50: 2.93 ± 0.1 µM
  Selectivity Index BChE/AChE: 7.50
[10]
  reduction of Caspase-1 levels: 46.6%
  Caspase-1: 5.08 ± 0.050 ^abc
[11]
  elevation of BDNF levels: 2.7 fold
  BDNF (ng/mL): 115.8 ± 0.07 ^abc ng/mL
[12]
  rise in the level of NE: 2.1 times
  NE (nmol/g Tissue): 386.7 ± 2.66 ^abc nmol/g Tissue
[13]
  BAX/Bcl-2 Ratio: 7.84

## O=C1CN(c2ccc(O)cc2)C(=O)c2c(sc3c2CCCCC3)O1 [Compound 15, 4-(4-Hydroxyphenyl)-3,4,7,8,9,10-hexahydro-6H-cyclohepta[4,5]thieno[3,2-f][1,4]oxa-zepine-2,5-dione]
[1]
  increase in SAP%: ~34.8%
  SAP%: 82.5 ± 0.89 ^abc %
[2]
  elevation of 5-HT levels: 3.7 fold
  5-HT (ng/g Tissue): 6.77 ± 0.22 ^abc ng/g Tissue
[3]
  IC50: 1.59 ± 0.06 µM
[4]
  histopathological finding in CC, ST, FD and SN (NP = nuclear pyknosis): normal histology of CC and FD, and moderate NP in ST and SN
  histology of CC neurons and FD: normal histological structures
  pyknosis in ST and SN neurons: moderate pyknosis
[5]
  improvement of TAC levels: ~3.3 times
  TAC (µmol/g Tissue): 31.67 ± 0.42 ^abc µmol/g Tissue
[6]
  reduction in MDA brain content: 45.2%
  MDA (nmol/g Tissue): 63.68 ± 0.12 ^abc nmol/g Tissue
[7]
  reduction of NFκβ mRNA expression: 64.8%
  NFκβ: 2.98 ± 0.10 ^abc
[8]
  elevation of Nrf-2 mRNA expression: 5.1 fold
  Nrf-2: 0.82 ± 0.020 ^abc
[9]
  IC50: 0.7 ± 0.02 µM
  Selectivity Index BChE/AChE: 0.44
[10]
  reduction of Caspase-1 levels: 69.1%
  Caspase-1: 2.94 ± 0.110 ^abc
[11]
  elevation of BDNF levels: 2.2 fold
  BDNF (ng/mL): 94.48 ± 0.05 ^abc ng/mL
[12]
  rise in the level of NE: 2.7 times
  NE (nmol/g Tissue): 499.8 ± 2.85 ^abc nmol/g Tissue
[13]
  BAX/Bcl-2 Ratio: 5.20

## COc1ccc(N2CC(=O)Oc3sc4c(c3C2=O)CCCCC4)cc1 [Compound 16, 4-(4-Methoxyphenyl)-3,4,7,8,9,10-hexahydro-6H-cyclohepta[4,5]thieno[3,2-f][1,4]oxa-zepine-2,5-dione]
[1]
  SAP%: 71.67 ± 1.15 ^abc %
[2]
  elevation of 5-HT levels: 5.9 fold
  5-HT (ng/g Tissue): 10.65 ± 0.71 ^abc ng/g Tissue
[3]
  IC50: 0.76 ± 0.03 µM
[4]
  histopathological finding in CC, ST, FD and SN (NP = nuclear pyknosis): mild NP in neurons in CC, as well as moderate NP in neurons of ST, FD, and SN; also recorded: minor NP in the CC and significant NP in FD, ST, and SN
[5]
  improvement of TAC levels: 4.4 times
  TAC (µmol/g Tissue): 42.42 ± 0.84 ^abc µmol/g Tissue
[6]
  reduction in MDA brain content: 72.8%
  MDA (nmol/g Tissue): 31.63 ± 0.05 ^abc nmol/g Tissue
[7]
  reduction of NFκβ mRNA expression: 44.5%
  NFκβ: 4.70 ± 0.12 ^abc
[8]
  elevation of Nrf-2 mRNA expression: 2.9 fold
  Nrf-2: 0.47 ± 0.005 ^abc
[9]
  IC50: 5.23 ± 0.18 µM
  Selectivity Index BChE/AChE: 6.89
[10]
  reduction of Caspase-1 levels: 47%
  Caspase-1: 5.04 ± 0.130 ^abc
[11]
  elevation of BDNF levels: 3.1 fold
  BDNF (ng/mL): 134.8 ± 0.01 ^abc ng/mL
[12]
  rise in the level of NE: 2 times
  NE (nmol/g Tissue): 366.4 ± 1.52 ^abc nmol/g Tissue
[13]
  BAX/Bcl-2 Ratio: 9.75
